Measurements published in patent US9408854B2, “Methods and systems for pharmacogenomic treatment of cardiovascular conditions” (ROSTAQUO S.P.A., priority 2009, dated 2016).

Tested on: hypertensive patients
Assay: Two separate studies: blood pressure change with HCTZ, Losartan and rostafuroxin in patients carrying profile 4, 8 or 9
Type: in vivo, human
Settings: preliminary data; for modification in blood pressure: individuals carrying profile 4
Source text: In particular, individuals carrying profile 4 show a modification in blood pressure of: −12.3±1.5 mmHg with HCTZ; −11.3±1.7 with Losartan and −18.74±1.8 mmHg with rostafuroxin; individuals with profile 8 show the a decrease in blood pressure of −11.3±1.2 with HCTZ; −11.6±1.3 with Losartan and −15.2±1.5 mmHg with rostafuroxin; individuals with profile 9 show the a decrease in blood pressure of −11.9±1.2 with HCTZ; −11.4±1.4 with Losartan and −15.2±1.5 mmHg with rostafuroxin.

Structure (SMILES) | modification in blood pressure | decrease in blood pressure (individuals with profile 8) | decrease in blood pressure (individuals with profile 9)
CCCCc1nc(Cl)c(CO)n1Cc1ccc(-c2ccccc2-c2nnn[nH]2)cc1 [Losartan, (2-butyl-4-chloro-1-{[2′-(1H-tetrazol-5-yl)biphenyl-4-yl]methyl}-1H-imidazol-5-yl)methanol] | −11.3±1.7 mmHg | −11.6±1.3 mmHg | −11.4±1.4 mmHg
NS(=O)(=O)c1cc2c(cc1Cl)NCNS2(=O)=O [HCTZ, 6-chloro-1,1-dioxo-3,4-dihydro-2H-1,2,4-benzothiadiazine-7-sulfonamide] | −12.3±1.5 mmHg | −11.3±1.2 mmHg | −11.9±1.2 mmHg
